The values below come from patent US4879370A, “Glutathione delivery system” (Cornell Research Foundation, Inc., priority 1985, dated 1989).

Experiment [1] relates to GSH level in the liver and in the kidney. Briefly: GSH level in liver and kidney of starved mice, time course (Example 6). Type of experiment: in vivo. The note with it: mice starved 24 hours, 10 mmol/kg i.p., 2 to 3 hours after the administration. On the procedure:
The test compound was dissolved in sterile water to give a test solution. Groups of 3 mice, each having a body weight of 20 to 25 g, were starved over a period of 24 hours and treated intraperitoneally with a dose of 10 mmol/kg of the test compound. Mice were dissected by every two hours, and the liver and kidney were taken out. GSH analysis was performed on each of the organs.

In experiment [2] the test system is mice treated with lethal dose of acetaminophen. Briefly: Survival of starved mice after lethal dose of acetaminophen (Example 8). The experiment is classed as in vivo. As to conditions: acetaminophen 5 mmol/kg i.p., test compound 10 mmol/kg one hour later, 15 mice. The source says: Starved mice were intraperitoneally treated with 5 mmol/kg (lethal dose) of acetaminophen and, one hour later, with 10 mmol/kg of the test compound.

Experiment [3] concerns glutathione levels of the liver and kidney. Briefly: Liver and kidney glutathione levels of fasted mice given glutathione ester or glutathione (Example 1, Comparative Example 1). Type of experiment: in vivo. The method, then:
A solution of the glutathione ester was prepared in aseptic water. […] At intervals of 2 hours, as shown in FIGS. 1(a) and (b), the animals were decapitated and the liver and kidney tissues were removed and analyzed for glutathione. Using groups of 3 mice each, values are given as means±S.D.

Experiment [4] shares this test system. Briefly: Liver and kidney glutathione levels of mice pretreated with buthionine sulfoximine (Example 2). Type of experiment: in vivo. The note with it: 2 mmol/kg buthionine sulfoximine. The source says: Controls were again given saline, with tissue levels of GSH being determined at the indicated intervals. Values are means±S.D., using groups of 3 mice each.

Experiment [5] concerns mice given a lethal dose of acetaminophen. The note with it: acetaminophen 5 mmole per kilogram, ester 10 mmole per kilogram 1 hour later, 15 mice.
Where [6] appears, read: mice fasted 24 hours, intraperitoneal 10 millimoles per kilogram, 2 hours after administration, vs 0.15M NaCl controls.

With `CCCCCCOC(=O)CNC(=O)[C@H](CS)NC(=O)CC[C@H](N)C(=O)O` [GSH mono-n-hexyl ester, n-Hexyl γ-L-glutamyl-L-cysteinylglycinate], in experiment [1], the “GSH level in the kidney” value is reported as “substantial elevation” and the “GSH level in the liver” value is given as “substantial elevation”. Moreover, the “survival after 7 days” value in experiment [2] is “survived and were recovered clearly after 7 days”.

For the compound `CC(C)COC(=O)CNC(=O)[C@H](CS)NC(=O)CC[C@H](N)C(=O)O` [GSH monoisobutyl ester, Isobutyl γ-L-glutamyl-L-cysteinylglycinate], in experiment [1], the “GSH level in the kidney” value is “substantial elevation” and the “GSH level in the liver” value is reported as “substantial elevation”. Also, the “survival after 7 days” value in experiment [2] is “survived and were recovered clearly after 7 days”.

As to `CC(C)OC(=O)CNC(=O)[C@H](CS)NC(=O)CC[C@H](N)C(=O)O` [GSH monoisopropyl ester, Isopropyl γ-L-glutamyl-L-cysteinylglycinate], in experiment [1], the “GSH level in the kidney” value is recorded as “substantial elevation” and the “GSH level in the liver” value is reported as “substantial elevation”. Moreover, in experiment [2], the “survival after 7 days” value is “survived and were recovered clearly after 7 days”.

`N[C@@H](CCC(=O)N[C@@H](CS)C(=O)NCC(=O)O)C(=O)O` [GSH, L-γ-glutamyl-L-cysteinyl-glycine, reference compound]: in experiment [3] (setting [6]), the “glutathione level of the kidney” value is reported as “only a slight effect”. In experiment [1], the “GSH level in the kidney” value is “slight elevation” and the “GSH level in the liver” value is listed as “No elevation”.

As for `CCCCS(=N)(=O)CCC(N)C(=O)O` (centres unmarked) [buthionine sulfoximine], the “glutathione levels of the liver and kidney after the inhibitor” value in experiment [4] is recorded as “decreased to a very low value”.

For `CCOC(=O)CNC(=O)[C@H](CS)NC(=O)CC[C@H](N)C(=O)O` [glutathione monoethyl ester, L-γ-Glutamyl-L Cysteinyl Glycyl Ethyl Ester], the “effects on liver and kidney glutathione levels compared with glutathione monomethyl ester” value in experiment [3] (fasted mice, as Example 1) is on record as “about the same”.

As for `COC(=O)CNC(=O)[C@H](CS)NC(=O)CC[C@H](N)C(=O)O` [glutathione monomethyl ester], the “fatalities / survival at 7 days” value in experiment [5] is on record as “no fatalities were observed”. Moreover, in experiment [3] (setting [6]), the “glutathione level of the kidney” value is reported as “increased substantially” and the “glutathione level of the liver” value is recorded as “increased substantially”.
